{"source": "patent US8273724B2", "about": "“Melanoma antigens and their use in diagnostic and therapeutic methods” (The United States of America, as represented by the …, priority 1994, dated 2012)", "key": {"[1]": {"target": "T1, HLA-A2.1 (Homo sapiens, UniProt P04439, D140Y/D185E/D98H/E176V/E277Q/G131W/G231S/I119V/I121R/I166T/I218V/L300P/L318F/N151K/N90K/P208A/P217A/Q86G/Q94H/R138H/R169H/T345S)", "assay": "Peptide binding assay to HLA-A2.1, competition with radiolabeled HBc18-27 (Example 4)"}, "[2]": {"system": "HLA-A2.1+ T2 cells", "conditions": "for TIL that recognize the peptide: cytotoxicity assays, T2 preincubated with peptide"}, "[3]": {"system": "624mel melanoma cell line", "assay": "Induction of peptide specific CTL from PBL, 51Cr release against melanoma cells (Example 5)", "format": "cell-based, human", "conditions": "for % specific lysis by PBL stimulated with the peptide: target 624mel, E:T = 3D40:1, after 4 stimulations (Table 20)", "experimental": "(§1) Induction of peptide specific CTL PBMC were separated from peripheral blood of HLA-A2+ melanoma patients and normal donors by centrifugation on Ficoll-Hypaque gradients and used as fresh or cryopreserved samples. […] Two days later, 12 IU/ml interleukin 2 (IL-2) (Chiron Co., Emeryville, Calif.) were added to the cultures. Lymphocytes were then restimulated weekly as follows: responder cells were harvested, washed once and replated in 24-well plates at a concentration of 2.5×10^5 cells/ml in CM. Autologous PBMC were thawed, washed twice in PBS, resuspended at 5-8×10^6 cells/ml in CM and pulsed with 1 ug/ml peptide in 15-ml conical tubes (5 ml/tube) for 3 hours at 37° C. These PBMC (stimulators) were then irradiated at 3000 rads, washed once in PBS and added to the responder cells at responder:stimulator ratios ranging between 1:3 and 1:10. The next day, 12 IU/ml IL-2 were added to the cultures. The activity of these CTL was tested by cytotoxicity assays after at least 2 rounds (14 days) of peptide stimulation. To generate CTL from TIL cultures, the dissociated tumor suspension were cultured for 1-2 days in 10% FCS RPMI-1640 medium to allow tumor cell adherence. The lymphocytes, recovered from the non-adherent fraction, were used for the induction of peptide specific CTL as described above.\n(§2) Assessment of antigen recognition by CTL. ^51Cr release cytotoxic assays were performed to detect the recognition of peptide and melanoma cells by CTL. To analyze peptide recognition, T2 cell lines were preincubated for 2 h at 37° C. with 1 ug/ml peptide, washed and used as target cells in a ^51Cr release cytotoxic assay. The melanoma lines 624mel was established in our laboratory (See Example 1)."}, "[4]": {"target": "T1, HLA-A2.1", "assay": "HLA-A2.1 binding assay of modified peptides, inhibition of radiolabeled Hbc 18-27 (Example 5)"}, "[5]": {"system": "T2 cells", "assay": "Induction of peptide specific CTL from PBL, 51Cr release against T2 cells with or without peptide (Example 5)", "format": "cell-based, human", "conditions": "E:T = 3D40:1", "experimental": "as §1, §2"}, "[6]": {"system": "T2 cell lines preincubated with peptide", "assay": "Recognition of modified peptides by natural epitope (M9-2, G9-154, G9-209, G9-280) reactive T-cells, 51Cr release on peptide-pulsed T2 cells (Example 5)", "format": "cell-based, human", "outline": "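T2 target cells were pulsed with 1 ug/ml peptide for 2 h at 37° C., then washed. CTL recognition was measured by ^51Cr release cytotoxicity.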"}, "[7]": {"system": "T2 cells preincubated with peptides", "assay": "IFN-γ / cytokine release by TIL incubated with T2 cells preincubated with peptides", "format": "cell-based, human", "conditions": "T2 cells preincubated with peptide; data not shown"}, "[8]": {"conditions": "Exp. 1, peptide 1 ug/ml, TIL 620-1"}, "[9]": {"conditions": "Exp. 1, peptide 1 ug/ml, TIL 620-2"}, "[10]": {"conditions": "Exp. 1, peptide 1 ug/ml, TIL 660-1"}, "[11]": {"conditions": "Exp. 1, peptide 1 ug/ml, TIL 1143"}, "[12]": {"conditions": "Exp. 1, peptide 1 ug/ml, TIL 1200"}, "[13]": {"conditions": "Exp. 1, peptide 1 ug/ml, TIL 1235"}, "[14]": {"conditions": "Exp. 3, peptide 1 ug/ml, TIL 660-3"}, "[15]": {"conditions": "Exp. 3, peptide 1 ug/ml, TIL 1143"}, "[16]": {"conditions": "Exp. 3, peptide 1 ug/ml, TIL 1200"}, "[17]": {"conditions": "Exp. 3, peptide 1 ug/ml, TIL 1235"}, "[18]": {"conditions": "target T2 + G9-280-9V, after 4 stimulations"}, "[19]": {"conditions": "target T2 + G9-280, after 4 stimulations"}, "[20]": {"conditions": "target T2, after 4 stimulations (Table 20)"}}, "note": "Like-named read-outs stand apart in the source and are kept apart here. Where a SMILES comes first, the peptide text is derived from it."}
{"smiles": "CC(C)C[C@H](NC(=O)[C@H](CCCNC(=N)N)NC(=O)[C@H](CC(C)C)NC(=O)[C@@H](NC(=O)[C@H](C)NC(=O)[C@@H](NC(=O)CNC(=O)[C@H](CC(=O)O)NC(=O)[C@H](CC(C)C)NC(=O)[C@@H](N)CC(C)C)[C@@H](C)O)[C@@H](C)O)C(=O)O", "note": "[G10-4]", "values": [{"measurement": "IC50", "setting": "[1]", "result": 483, "unit": "nM"}]}
{"smiles": "CC(C)C[C@H](NC(=O)[C@@H](N)Cc1ccc(O)cc1)C(=O)N[C@@H](CCC(=O)O)C(=O)N1CCC[C@H]1C(=O)NCC(=O)N1CCC[C@H]1C(=O)N[C@H](C(=O)N[C@H](C(=O)N[C@@H](C)C(=O)O)[C@@H](C)O)C(C)C", "note": "[G9280]", "values": [{"measurement": "number of gp100 reactive TIL recognizing the peptide", "setting": "[2]; 4 gp100 reactive TIL from different patients", "result": "2 of 4"}, {"measurement": "% specific lysis at E:T = 40:1", "setting": "[2]; [8]", "result": 2, "unit": "%"}, {"measurement": "% specific lysis at E:T = 40:1", "setting": "[2]; [9]", "result": 7, "unit": "%"}, {"measurement": "% specific lysis at E:T = 40:1", "setting": "[2]; [10]", "result": 43, "unit": "%"}, {"measurement": "% specific lysis at E:T = 40:1", "setting": "[2]; [11]", "result": 11, "unit": "%"}, {"measurement": "% specific lysis at E:T = 40:1", "setting": "[2]; [12]", "result": 0, "unit": "%"}, {"measurement": "% specific lysis at E:T = 40:1", "setting": "[2]; [13]", "result": 0, "unit": "%"}, {"measurement": "% specific lysis at E:T = 40:1", "setting": "[2]; Exp. 2, peptide 1 ng/ml, TIL 620-1", "result": 2, "unit": "%"}, {"measurement": "% specific lysis at E:T = 40:1", "setting": "[2]; Exp. 2, peptide 1 ng/ml, TIL 620-2", "result": 9, "unit": "%"}, {"measurement": "% specific lysis at E:T = 40:1", "setting": "[2]; Exp. 2, peptide 1 ng/ml, TIL 660-2", "result": 75, "unit": "%"}, {"measurement": "% specific lysis at E:T = 40:1", "setting": "[2]; Exp. 2, peptide 1 ng/ml, TIL 1143", "result": 34, "unit": "%"}, {"measurement": "% specific lysis at E:T = 40:1", "setting": "[2]; Exp. 2, peptide 1 ng/ml, TIL 1200", "result": 1, "unit": "%"}, {"measurement": "% specific lysis at E:T = 40:1", "setting": "[2]; Exp. 2, peptide 1 ng/ml, TIL 1235", "result": 2, "unit": "%"}, {"measurement": "% specific lysis at E:T = 40:1", "setting": "[2]; [14]", "result": 99, "unit": "%"}, {"measurement": "% specific lysis at E:T = 40:1", "setting": "[2]; [15]", "result": 37, "unit": "%"}, {"measurement": "% specific lysis at E:T = 40:1", "setting": "[2]; [16]", "result": 9, "unit": "%"}, {"measurement": "% specific lysis at E:T = 40:1", "setting": "[2]; [17]", "result": 5, "unit": "%"}, {"measurement": "TIL that recognize the peptide", "setting": "[2]", "result": "recognized by TIL660 and TIL1143"}, {"measurement": "binding affinity class to HLA-A2.1", "setting": "[1]", "result": "inteivediate"}, {"measurement": "% specific lysis by PBL stimulated with the peptide", "setting": "[3]", "result": 11, "unit": "%"}, {"measurement": "HLA-A2.1 binding, in words", "setting": "[4]; natural epitopes", "result": "not high affinity binders"}, {"measurement": "% specific lysis by PBL stimulated with the peptide", "setting": "[5]; [18]", "result": 8, "unit": "%"}, {"measurement": "% specific lysis by PBL stimulated with the peptide", "setting": "[5]; [19]", "result": 11, "unit": "%"}, {"measurement": "% specific lysis by PBL stimulated with the peptide", "setting": "[5]; [20]", "result": 3, "unit": "%"}]}
{"smiles": "CC(C)C[C@H](NC(=O)[C@@H](N)C(C)C)C(=O)N[C@@H](Cc1ccc(O)cc1)C(=O)N[C@@H](CCCNC(=N)N)C(=O)N[C@@H](Cc1ccc(O)cc1)C(=O)NCC(=O)N[C@@H](CO)C(=O)N[C@@H](Cc1ccccc1)C(=O)N[C@@H](CO)C(=O)N[C@H](C(=O)O)C(C)C", "note": "[G10-5] (H-VLYRYGSFSV-OH; N-terminus and C-terminus assumed)", "values": [{"measurement": "lysis of T2 cells preincubated with the peptide", "setting": "[2]", "result": "repeatedly low"}, {"measurement": "% specific lysis at E:T = 40:1", "setting": "[2]; [8]", "result": 2, "unit": "%"}, {"measurement": "% specific lysis at E:T = 40:1", "setting": "[2]; [9]", "result": 7, "unit": "%"}, {"measurement": "% specific lysis at E:T = 40:1", "setting": "[2]; [10]", "result": 2, "unit": "%"}, {"measurement": "% specific lysis at E:T = 40:1", "setting": "[2]; [11]", "result": 1, "unit": "%"}, {"measurement": "% specific lysis at E:T = 40:1", "setting": "[2]; [12]", "result": 7, "unit": "%"}, {"measurement": "% specific lysis at E:T = 40:1", "setting": "[2]; [13]", "result": 0, "unit": "%"}, {"measurement": "% specific lysis at E:T = 40:1", "setting": "[2]; [14]", "result": 14, "unit": "%"}, {"measurement": "% specific lysis at E:T = 40:1", "setting": "[2]; [15]", "result": 2, "unit": "%"}, {"measurement": "% specific lysis at E:T = 40:1", "setting": "[2]; [16]", "result": 6, "unit": "%"}, {"measurement": "% specific lysis at E:T = 40:1", "setting": "[2]; [17]", "result": 5, "unit": "%"}, {"measurement": "TIL that recognize the peptide", "setting": "[2]", "result": "TIL660-3 also recognized"}, {"measurement": "IC50", "setting": "[1]; binding to HLA-A2.1", "result": 13, "unit": "nM"}, {"measurement": "Ratio to Standard: binding affinity of the sample peptide to that of the standard peptide", "setting": "[1]; standard peptide 50% inhibition at 5 nM", "result": 0.38}]}
{"smiles": "CC[C@H](C)[C@H](NC(=O)CNC(=O)[C@H](C)NC(=O)[C@H](C)N)C(=O)NCC(=O)N[C@H](C(=O)N[C@@H](CC(C)C)C(=O)N[C@H](C(=O)N[C@H](C(=O)O)C(C)C)[C@@H](C)O)[C@@H](C)CC", "note": "[M9-2]", "values": [{"measurement": "Recognition by M9-2 reactive T-cell", "setting": "[6]", "result": "+ (+, recognized)"}, {"measurement": "cytokine secretion (IFN-γ, GM-CSF, TNF-α) by 10 TIL and clone A42", "setting": "[7]", "result": "secreted cytokines"}]}
{"smiles": "CC(C)C[C@H](NC(=O)[C@@H](N)Cc1ccc(O)cc1)C(=O)N[C@@H](CCC(=O)O)C(=O)N1CCC[C@H]1C(=O)NCC(=O)N1CCC[C@H]1C(=O)N[C@H](C(=O)N[C@H](C(=O)O)[C@@H](C)O)C(C)C", "note": "[G9-280-9V] (H-YLEPGPVT-OH; N-terminus and C-terminus assumed)", "values": [{"measurement": "recognition and lysis of original epitopes and melanoma tumor cells (624 mel) by PBL stimulated with the peptide, compared with natural epitopes", "setting": "[3]; PBL stimulated with autologous PBMC pulsed with peptide", "result": "better"}, {"measurement": "% specific lysis by PBL stimulated with the peptide", "setting": "[3]", "result": 71, "unit": "%"}, {"measurement": "binding affinity to HLA-A2.1 compared with the natural epitope", "setting": "[4]", "result": "higher binding affinity"}, {"measurement": "% specific lysis by PBL stimulated with the peptide", "setting": "[5]; [18]", "result": 58, "unit": "%"}, {"measurement": "% specific lysis by PBL stimulated with the peptide", "setting": "[5]; [19]", "result": 87, "unit": "%"}, {"measurement": "% specific lysis by PBL stimulated with the peptide", "setting": "[5]; [20]", "result": 0, "unit": "%"}, {"measurement": "recognition by the original melanoma reactive T-cells", "setting": "[6]", "result": "recognized"}, {"measurement": "Recognition by G9-280 reactive T-cell", "setting": "[6]; 51Cr release, T2 cells preincubated with 1 ug/ml peptide", "result": "+ (+, recognized)"}]}
